Measured values reported in US20260124213A1, “STAPHYLOCOCCUS AUREUS PBP4 INHIBITORS AND METHOD OF USE” (UNIVERSITY OF ROCHESTER, priority 2022, published 2026).
Values joined by “and” are separate entries in the source; they are usually repeats but may differ in a detail not shown here. Identical values can stand only once. Like-named read-outs stand apart in the source and are kept apart here.

Columns and labels:
[1] = target: recombinant B. subtilis PBP4 (Bacillus subtilis, UniProt P40750); test: BOCILLIN FL fluorescence polarization binding competition
Sequence of recombinant B. subtilis PBP4 (P40750 22-624): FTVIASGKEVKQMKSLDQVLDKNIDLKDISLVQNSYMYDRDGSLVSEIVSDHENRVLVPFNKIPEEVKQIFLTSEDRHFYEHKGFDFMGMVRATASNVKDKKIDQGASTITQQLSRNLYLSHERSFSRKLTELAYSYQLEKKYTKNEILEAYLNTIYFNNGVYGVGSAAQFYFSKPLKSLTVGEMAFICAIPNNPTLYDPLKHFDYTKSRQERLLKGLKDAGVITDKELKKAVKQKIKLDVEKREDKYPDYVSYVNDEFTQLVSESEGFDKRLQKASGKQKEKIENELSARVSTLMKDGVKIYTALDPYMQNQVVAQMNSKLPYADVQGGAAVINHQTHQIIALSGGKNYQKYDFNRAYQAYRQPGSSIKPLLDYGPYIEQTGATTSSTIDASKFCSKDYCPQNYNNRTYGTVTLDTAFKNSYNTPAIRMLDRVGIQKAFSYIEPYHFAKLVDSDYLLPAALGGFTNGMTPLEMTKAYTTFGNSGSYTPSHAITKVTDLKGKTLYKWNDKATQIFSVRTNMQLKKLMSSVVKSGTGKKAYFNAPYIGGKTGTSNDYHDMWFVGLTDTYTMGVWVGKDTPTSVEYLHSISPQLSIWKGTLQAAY
Protocol: PBP4 BOCILLIN™ FL Binding Competition Assays. The ability of putative PBP4 inhibitors to impact the active site of recombinant PBP4 was assessed using two previously established BOCILLIN™-FL Penicillin (Penicillin V conjugated to BODIPY fluorescent dye) binding assays. First, fluorescence polarization assays were performed as previously described. Briefly, the indicated amount of the putative PBP4 inhibitor or control antibiotic was incubated with 1 μM recombinant B. subtilis PBP4 or S. aureus PBP2a in potassium phosphate buffer (40 mM K2HPO4 and 10 mM KH2PO4) for 1 hour in black 96-well microtiter plates (Corning Life Sciences®, Corning, NY). Following incubation, 1 μM (final concentration) BOCILLIN™ FL penicillin was added, and the mixture was incubated for 30 minutes. BOCILLIN™ FL fluorescence polarization was measured at (495nm excitation and 545nm emission) in a SpectraMax® M5 multimode plate reader (Molecular Devices®, San Jose, CA). All assays were repeated at least 8 times, averaged, and values falling outside of 2 standard deviations were considered outliers. Resulting data was plotted as percentage BOCILLIN™ FL binding inhibition=(T/U)×100; T=FL polarization of ((PBP4+BOCILLIN™ FL)−(PBP4+BOCILLIN™ FL+inhibitor compound)), U=FL polarization of ((PBP4+BOCILLIN™ FL)−(BOCILLIN™ FL)). Second, gel electrophoresis and fluorescence detection were used to measure BOCILLIN™ FL labeling of PBP4 treated with the known PBP4 inhibitor cefoxitin (positive control), kanamycin (negative control) or 9314848 (test compound). Briefly, 1 μM of recombinant PBP4 was mixed with 0, 50, 500, 2000, or 5000 μM 9314848 or control antibiotic in 50 mM phosphate buffer (pH 7.4) and incubated at 37° C. for 30 minutes. Next 40 μM of BOCILLIN™ FL was added to the reaction mixture and incubated for an additional 30 minutes at 37° C. Reactions were stopped by adding 5×SDS-PAGE gel loading dye, heated at 100° C. for 3 minutes and separated by electrophoresis in 12% SDS-PAGE (2 h, 120 Volts). BOCILLIN™ FL labeled PBP4 was imaged at λ=365 nm using a BioRad© Gel Doc EZ™ Imaging system and the gel was then subsequently stained with Bio-safe Coomassie Brilliant Blue stain (BioRad©, Hercules, CA, USA) to measure the amount of protein present in each reaction condition and analyzed using NIH-ImageJ software. The percent BOCILLIN™ FL binding was calculated by first normalizing the protein present in each reaction condition to that of untreated control and subsequently applying each reaction's protein normalization factor to each reaction's fluorescent signal. The percentage BOCILLIN™ FL binding inhibition was then calculated as the normalized band intensity of antibiotic/compound treated sample as compared to control sample (PBP4+BOCILLIN™ FL in the absence of compound).
To more directly evaluate whether 9314848 is likely to affect PBP4 function, the compound's ability to bind recombinant PBP4 was measured using BOCILLIN™ FL fluorescence polarization displacement assays. The premise for the assay is that the fluorescence polarization of the fluorescently labeled β-lactam, penicillin V (BOCILLIN™ FL), will increase upon binding to its cognate target (i.e., PBP4). Further, compounds that bind PBP4 and inhibit its function would impede BOCILLIN™ FL binding thereby allowing assessment of the protein binding affinity of 9314848 using a simple fluorescence reduction assay.

recombinant PBP4 = test: BOCILLIN FL labeling of PBP4, gel electrophoresis and fluorescence detection; assay type: binding; conditions: kanamycin 2000 μM or 5000 μM
Protocol: PBP4 BOCILLIN™ FL Binding Competition Assays. The ability of putative PBP4 inhibitors to impact the active site of recombinant PBP4 was assessed using two previously established BOCILLIN™-FL Penicillin (Penicillin V conjugated to BODIPY fluorescent dye) binding assays. First, fluorescence polarization assays were performed as previously described. Briefly, the indicated amount of the putative PBP4 inhibitor or control antibiotic was incubated with 1 μM recombinant B. subtilis PBP4 or S. aureus PBP2a in potassium phosphate buffer (40 mM K2HPO4 and 10 mM KH2PO4) for 1 hour in black 96-well microtiter plates (Corning Life Sciences®, Corning, NY). […] BOCILLIN™ FL fluorescence polarization was measured at (495nm excitation and 545nm emission) in a SpectraMax® M5 multimode plate reader (Molecular Devices®, San Jose, CA). […] Second, gel electrophoresis and fluorescence detection were used to measure BOCILLIN™ FL labeling of PBP4 treated with the known PBP4 inhibitor cefoxitin (positive control), kanamycin (negative control) or 9314848 (test compound). […] BOCILLIN™ FL labeled PBP4 was imaged at λ=365 nm using a BioRad© Gel Doc EZ™ Imaging system and the gel was then subsequently stained with Bio-safe Coomassie Brilliant Blue stain (BioRad©, Hercules, CA, USA) to measure the amount of protein present in each reaction condition and analyzed using NIH-ImageJ software. […]

MRSA strain AH-1263 = test: Broth microdilution antibiotic potentiation; assay type: cell-based, Staphylococcus aureus; conditions: for MIC: Staphylococcus aureus, MRSA
Protocol: (§1) Broth Microdilution Method for Antibiotic Potentiation with MRSA Strains. Bacteria were cultured for 6 hours in CAMHB and sub-cultured to 5×10^5 CFU/mL in CAMHB. Subcultures were aliquoted (4 mL) into culture tubes and then inoculated with compound from 10 mM or 100 mM stock in DMSO to the desired concentration. […]. Bacteria treated with antibiotic alone served as the control. Samples from the secondary culture tubes were then aliquoted (200 μL) into the first row of wells of a 96-well microtiter plate. Rows 2-11 were filled (100 μL) with the remaining 4 mL of bacterial subculture containing the adjuvant. Row 12 was filled (100 μL) with uninoculated media. From row 1, 100 μL was transferred to row two and mixed 5-8 times before being transferred to row 3. This procedure was used to serial dilute the rest of the rows through 10. The microtiter plate was then covered in Press 'n Seal and incubated at 37° C.

MRSA strain AH-2204 = test: Broth microdilution antibiotic potentiation; assay type: cell-based, Staphylococcus aureus; conditions: Staphylococcus aureus, MRSA
Protocol: as §1

[2] = tested on: MRSA strain ATCC BAA-1556; test: Broth microdilution antibiotic potentiation; assay type: cell-based, Staphylococcus aureus; conditions: for MIC: Staphylococcus aureus
Protocol: as §1

MRSA strain 700699 = test: Broth microdilution antibiotic potentiation; assay type: cell-based; conditions: Staphylococcus aureus, read-out: Oxacillin MIC, no compound (—)
Protocol: as §1

MRSA strain BAA-1685 = test: Broth microdilution antibiotic potentiation; assay type: cell-based; conditions: Staphylococcus aureus, read-out: Oxacillin MIC, no compound (—)
Protocol: as §1

MRSA strain BAA-44 = test: Broth microdilution antibiotic potentiation; assay type: cell-based; conditions: Staphylococcus aureus, read-out: Oxacillin MIC, no compound (—)
Protocol: as §1

MRSA strain BAA-811 = test: Broth microdilution antibiotic potentiation; assay type: cell-based; conditions: Staphylococcus aureus, read-out: Oxacillin MIC, no compound (—)
Protocol: as §1

MRSA strain 43300 = test: Broth microdilution antibiotic potentiation; assay type: cell-based; conditions: Staphylococcus aureus, read-out: Oxacillin MIC, no compound (—)
Protocol: (§2) Broth Microdilution Method for Antibiotic Potentiation with MRSA Strains. Bacteria were cultured for 6 hours in CAMHB and sub-cultured to 5×10^5 CFU/mL in CAMHB. Subcultures were aliquoted (4 mL) into culture tubes and then inoculated with compound from 10 mM or 100 mM stock in DMSO to the desired concentration. […] Bacteria treated with antibiotic alone served as the control. Samples from the secondary culture tubes were then aliquoted (200 μL) into the first row of wells of a 96-well microtiter plate. Rows 2-11 were filled (100 μL) with the remaining 4 mL of bacterial subculture containing the adjuvant. Row 12 was filled (100 μL) with uninoculated media. From row 1, 100 μL was transferred to row two and mixed 5-8 times before being transferred to row 3. This procedure was used to serial dilute the rest of the rows through 10. The microtiter plate was then covered in Press 'n Seal and incubated at 37° C.

MRSA strain 700789 = test: Broth microdilution antibiotic potentiation; assay type: cell-based; conditions: Staphylococcus aureus, read-out: Oxacillin MIC, no compound (—)
Protocol: as §2

MRSA strain BAA-1770 = test: Broth microdilution antibiotic potentiation; assay type: cell-based, Staphylococcus aureus; conditions: Staphylococcus aureus, read-out: Oxacillin MIC, no compound (—)
Protocol: as §2

Compound | Effect of preincubation on BOCILLIN FL binding to PBP4 (fluorescence polarization) [1] | Concentration of maximum BOCILLIN FL binding inhibition ([1]; dose-response 0-50 μM) [µM] | Effect of preincubation on BOCILLIN FL labeling of PBP4 (gel) (recombinant PBP4) | MIC (MRSA strain AH-1263; AH-1263, read-out: Ampicillin MIC, no compound (—)) [µg/mL] | MIC (MRSA strain AH-2204; AH-2204, read-out: Ampicillin MIC, no compound (—)) [µg/mL] | MIC ([2]; ATCC BAA-1556, read-out: Ampicillin MIC, no compound (—)) [µg/mL] | Oxacillin MIC, no compound (—) (MRSA strain AH-1263; AH-1263) [µg/mL] | MIC (MRSA strain AH-1263; read-out: Oxacillin MIC, no compound (—), AH-1263) [µg/mL] | MIC (MRSA strain AH-2204; read-out: Oxacillin MIC, no compound (—), AH-2204) [µg/mL] | Oxacillin MIC, no compound (—) ([2]; ATCC BAA-1556) | MIC ([2]; read-out: Oxacillin MIC, no compound (—), ATCC BAA-1556) [µg/mL] | MIC (MRSA strain 700699) [µg/mL] | MIC (MRSA strain BAA-1685) [µg/mL] | MIC (MRSA strain BAA-44) [µg/mL] | MIC (MRSA strain BAA-811) [µg/mL] | MIC (MRSA strain 43300) [µg/mL] | MIC (MRSA strain 700789) [µg/mL] | MIC (MRSA strain BAA-1770) [µg/mL]
CC1(C)S[C@@H]2[C@H](NC(=O)[C@H](N)c3ccccc3)C(=O)N2[C@H]1C(=O)O [Ampicillin, ampicillin] | limited BOCILLIN™ FL binding | 25 to 50 | reduced the protein's ability to bind the fluorescent substrate in a dose-dependent manner | 16 | 2 | 16 | – | – | – | – | – | – | – | – | – | – | – | –
Cc1onc(-c2ccccc2)c1C(=O)N[C@@H]1C(=O)N2[C@@H]1SC(C)(C)[C@@H]2C(=O)O [Oxacillin, oxacillin] | – | – | – | – | – | – | 32 | 16 | 32 | 32 µg/mL and 16 µg/mL | 32 | 16 | 64 | 16 | 256 | 512 | 256 | 512
